Assay results as given in patent US20210253598A1, “ARYL ANNULATED MACROCYCLIC INDOLE DERIVATIVES” (priority 2017, published 2021).
Where a name gives a salt, the structure may show the parent alone. Read-outs that look alike come from different tables or passages of the source.

Tests used:
Format in all cases: cell-based
MCL1 protein = biological target: T1, MCL1 protein (Homo sapiens, UniProt Q07820); assay: PIxEL: protein-protein interaction in permeabilized cells by ELISA (Assay 5); details: permeabilized RKO cells, biotin-BIM BH3 peptide 0.2 μM, serum free
T1 construct: this assay uses full length endogenous MCL1 protein at mitochondria outer membrane; endogenous in cells; host or cells: RKO colon cancer cell line
Method: PIxEL: Protein-Protein Interaction in Permeabilized Cells by ELISA
Most MCL1 protein molecules are localized at the mitochondria outer membrane and sequester pro-apoptotic proteins through binding of their BCL2 homology domain 3 (BH3 domain). MEB buffer (150 mM mannitol, 10 mM HEPES pH 7.5, 50 mM KCl, 20 μM EDTA, 20 μM EGTA, 5 mM potassium succinate, 0.1% protease-free BSA (SIGMA) with low dose digitonin (0.002%) permeabilizes plasma membrane while leaves live mitochondria, where MCL1 maintains its native localization and conformation. Unlike biophysical assays (e.g. TR-FRET) that use truncated recombinant MCL1 protein, this assay uses full length endogenous MCL1 protein at mitochondria outer membrane. It measures the interaction between MCL1 protein and biotinylated BIM BH3 peptide. Compounds can compete with BIM BH3 peptide to bind to MCL1 protein.
On day 1, RKO colon cancer cell line cells were plated at 0.8 million cells/ml, 100 μl/well in 96-well flat bottom TC plates (Corning). […] Each plate was tapped to make sure liquid covering entire bottom of wells and incubate at 37° C. overnight.
On the second day, MCL1 antibody was washed from ELISA plate. 250 μl Odyssey® Blocking Buffer (PBS) (Li-Cor) was added to each well, incubated at room temperature for at least 1 hour, then washed once with 250 μl 1×PBST. Plates with RKO cells were gently washed once with 100 μl/well PBS, once with 100 μl/well MEB buffer without digitonin, then 100 μl of MEB buffer with 0.002% digitonin was gently added to each well. Compounds were added with HP Tecan compound dispenser in 3-fold dilution series, highest dose 30 μM, 10-dose per compound in quadruplicates. Biotin-BIM peptide (synthesized by 21st Century) was added with HP Tecan compound dispenser at 0.2 μM immediately after the addition of compounds. Plates were rocked for 1 h at room temperature. Then MEB buffer was aspirated and 50 μl of CHAPS buffer (50 mM Tris-Cl, pH 7.4, 150 mM NaCl, 1% CHAPS, 1 mM EDTA, 1 mM EGTA, complete protease inhibitors (Roche), PhosSTOP (Roche)) was added to each well. Plates were rocked for 1 hour at 4° C., then 45 μl cell lysate from each well were transferred to ELISA plates coated with MCL1 antibody. Plates were incubated overnight in the cold room with rocking.
On the third day, ELISA plates were washed once with 250 μl 1×PBST. Streptavidin-poly-HRP (Thermo Fisher Scientific) was diluted to 20 ng/ml in Odyssey blocking buffer plus 0.05% Triton-100, and 100 μl was added to each well of the ELISA plate. Plates were incubated at RT for 1 hour with rocking, then washed with 100 μL 1×PBST for 3 times. Each SuperSignal ELISA Femto Maximum Sensitivity substrate was added to a 50-ml tube and mixed, then 100 μl of mixed substrate was added to each well. Plates were shaken for 1 minute then luminescence was measured by Envision plate reader […]. Signal of each well were normalized by no-compound control and no-cell control. IC50 was calculated using Graphic Pad PRISM software.

SUDHL10 = assay: Anti-proliferative effect in SUDHL10 cells, CellTiter-Glo (Assay 7); details: median, read-out: Antiproli SUDHL10 [M] (median)
Method: (§1) Assessment of the Anti-Proliferative Effect of Compounds in Different Cell Lines
(§2) The impact of compounds on the proliferation of different cell lines was assessed using the CellTiter-Glo® Luminescent Cell Viability reagent from Promega (G7573).
(§3) In parallel, cells were plated in a reference (day 0) plate for time zero determination. Cells were incubated in a humidified incubator at 37° C. overnight.
(§4) Rim wells were excluded. The cells were incubated for 72 hours in a humidified incubator at 37° C. The day 0 plate was measured by adding 30 μL/well of CTG solution (CellTiter-Glo® Luminescent Cell Viability reagent, Promega G7573) to time zero wells in the reference plate followed by a 10 minutes incubation and luminescence reading at 0.1 ms. using the PHERAstar FS microplate reader (BMG Labtech).
(§5) After 72 hours incubation, the treated plates were measured in the same way as the day 0 plate mentioned above. The Bella DRC Master Sheet was used to calculate IC50s, with CI=day 0 values and C0=DMSO control values.

HMC-1-8 = assay: Anti-proliferative effect in HMC-1-8 cells, CellTiter-Glo (Assay 7)
Method: as §1, §2, §3, §4, §5

[1] = median, read-out: PIxEL [M] (median)
[2] = read-out: Antiproli HMC-1-8, HMC-1-8, 72 hours incubation

T1 sequence (Q07820 whole entry): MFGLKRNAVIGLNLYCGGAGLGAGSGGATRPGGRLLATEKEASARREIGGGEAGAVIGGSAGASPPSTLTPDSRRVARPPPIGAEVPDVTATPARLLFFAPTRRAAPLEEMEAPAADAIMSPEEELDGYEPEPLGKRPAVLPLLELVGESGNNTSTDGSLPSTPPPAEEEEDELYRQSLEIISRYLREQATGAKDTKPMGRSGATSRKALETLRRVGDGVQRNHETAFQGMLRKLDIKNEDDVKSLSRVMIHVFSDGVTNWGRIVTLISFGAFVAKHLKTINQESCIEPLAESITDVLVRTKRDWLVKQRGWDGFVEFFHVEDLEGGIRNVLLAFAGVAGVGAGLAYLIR

Cc1c2c(nn1C)COCc1ncccc1Cn1c(C(=O)O)c(CCCOc3cccc4ccccc34)c3cccc-2c31 (single isomer, unassigned; enantiomer 1) [Example 8, 4,5-Dimethyl-17-[3-(naphthalen-1-yloxy)propyl]-5,7,9,14-tetrahydropyrazolo[4′,3′:9,10]-pyrido[2′,3′:3,4][1,6]oxazacycloundecino[8,7,6-hi]indole-16-carboxylic acid-N-ethylethanamine Salt (Enantiomer 1)]
IC50 (MCL1 protein; PIxEL [M] (median)): 1.82e-05 M

Cc1c2c(nn1C)COCc1ccccc1Cn1c(C(=O)O)c(CCCOc3cccc4ccccc34)c3ccc(Cl)c-2c31 (single isomer, unassigned; enantiomer 1) [Example 37, (−)-3-Chloro-4,5-dimethyl-17-[3-(naphthalen-1-yloxy)propyl]-5,7,9,14-tetrahydroindolo[7,1-fg]pyrazolo[3,4-d][2,8]benzoxazacycloundecine-16-carboxylic Acid (Enantiomer 1)]
IC50 (MCL1 protein; PIxEL [M] (median)): 1.61e-06 M

CCNCC.Cc1c2c(nn1C)COCc1ncccc1Cn1c(C(=O)O)c(CCCOc3cccc4ccccc34)c3ccc(Cl)c-2c31 (single isomer, unassigned; enantiomer 1) [Example 43, 3-Chloro-4,5-dimethyl-17-[3-(naphthalen-1-yloxy)propyl]-5,7,9,14-tetrahydropyrazolo-[4′,3′:9,10]pyrido[2′,3′:3,4][1,6]oxazacycloundecino[8,7,6-hi]indole-16-carboxylic acid-N-ethylethanamine Salt (Enantiomer 1)]
IC50 (MCL1 protein; [1]): 2.97e-06 M
IC50 (SUDHL10; SUDHL10, 72 hours incubation): 1.5e-06 M

Cc1c2c(nn1C)COCc1ccccc1Cn1c(C(=O)O)c(CCCOc3cccc4cc(F)ccc34)c3ccc(Cl)c-2c31 (single isomer, unassigned; enantiomer 1) [Example 49, (−)-3-Chloro-17-{3-[(6-fluoronaphthalen-1-yl)oxy]propyl}-4,5-dimethyl-5,7,9,14-tetrahydroindolo[7,1-fg]pyrazolo[3,4-d][2,8]benzoxazacycloundecine-16-carboxylic acid-N-ethylethanamine Salt (Enantiomer 1)]
IC50 (MCL1 protein; PIxEL [M] (median)): 7.88e-07 M
IC50 (SUDHL10; Homo sapiens, SU-DHL10, SUDHL10, 72 hours incubation): 1.2e-06 M

CCc1nn(CCN2CCOCC2)c2c1-c1c(Cl)ccc3c(CCCOc4cccc5cc(F)ccc45)c(C(=O)O)n(c13)Cc1ccccc1COC2 (single isomer, unassigned; enantiomer 1) [Example 52, (−)-3-Chloro-4-ethyl-17-{3-[(6-fluoronaphthalen-1-yl)oxy]propyl}-6-[2-(morpholin-4-yl)ethyl]-6,7,9,14-tetrahydroindolo[7,1-fg]pyrazolo[3,4-d][2,8]benzoxazacycloundecine-16-carboxylic Acid (Enantiomer 1)]
IC50 (MCL1 protein; [1]): 3.68e-07 M

CCc1c2c(nn1C)COCc1ccccc1Cn1c(C(=O)O)c(CCCOc3cccc4cc(F)ccc34)c3ccc(Cl)c-2c31 (single isomer, unassigned; enantiomer 1) [Example 55, (−)-3-Chloro-4-ethyl-17-{3-[(6-fluoronaphthalen-1-yl)oxy]propyl}-5-methyl-5,7,9,14-tetrahydro-indolo[7,1-fg]pyrazolo[3,4-d][2,8]benzoxazacycloundecine-16-carboxylic Acid N-ethylethanamine Salt (Enantiomer 1)]
IC50 (MCL1 protein; PIxEL [M] (median)): 3.11e-07 M
IC50 (HMC-1-8; [2]): 2390 nM

CCc1nn(C)c2c1-c1c(Cl)ccc3c(CCCOc4cccc5cc(F)ccc45)c(C(=O)O)n(c13)Cc1ccccc1COC2 (single isomer, unassigned; enantiomer 1) [Example 58, (+)-3-Chloro-4-ethyl-17-{3-[(6-fluoronaphthalen-1-yl)oxy]propyl}-6-methyl-6,7,9,14-tetrahydro-indolo[7,1-fg]pyrazolo[3,4-d][2,8]benzoxazacycloundecine-16-carboxylic acid-N-ethylethanamine Salt (Enantiomer 1)]
IC50 (MCL1 protein; [1]): 8.34e-07 M
IC50 (HMC-1-8; HMC-1-8, 72 hours incubation, read-out: Antiproli HMC-1-8): 3870 nM

Cc1c2c(nn1C)COCc1ccccc1Cn1c(C(=O)O)c(CCCOc3cccc4cc(F)ccc34)c3ccc(F)c-2c31 (single isomer, unassigned; enantiomer 1) [Example 65, (−)-3-fluoro-17-{3-[(6-fluoronaphthalen-1-yl)oxy]propyl}-4,5-dimethyl-5,7,9,14-tetrahydroindolo[7,1-fg]pyrazolo[3,4-d][2,8]benzoxazacycloundecine-16-carboxylic acid-N-ethylethanamine Salt (Enantiomer 1)]
IC50 (MCL1 protein; PIxEL [M] (median)): 1.04e-06 M

Cc1c2c(nn1C)COCc1ccccc1Cn1c(C(=O)O)c(CCCOc3cccc4ccccc34)c3ccc(F)c-2c31 (single isomer, unassigned; enantiomer 1) [Example 68, (−)-3-Fluoro-4,5-dimethyl-17-{3-[(naphthalen-1-yl)oxy]propyl}-5,7,9,14-tetrahydroindolo[7,1-fg]pyrazolo[3,4-d][2,8]benzoxazacycloundecine-16-carboxylic acid-N-ethylethanamine Salt (Enantiomer 1)]
IC50 (MCL1 protein; PIxEL [M] (median)): 2.16e-06 M

Cc1c2c(nn1C)COCc1ccccc1Cn1c(C(=O)O)c(CCCOc3cccc4cc(F)ccc34)c3ccc(Cl)c-2c31 (single isomer, unassigned; enantiomer 2) [Example 50, (+)-3-Chloro-17-{3-[(6-fluoronaphthalen-1-yl)oxy]propyl}-4,5-dimethyl-5,7,9,14-tetrahydroindolo[7,1-fg]pyrazolo[3,4-d][2,8]benzoxazacycloundecine-16-carboxylic acid-N-ethylethanamine Salt (Enantiomer 2)]
IC50 (MCL1 protein; PIxEL [M] (median)): 1.69e-06 M
IC50 (SUDHL10; SUDHL10, 72 hours incubation): 1.2e-06 M

CCc1c2c(nn1C)COCc1ccccc1Cn1c(C(=O)O)c(CCCOc3cccc4cc(F)ccc34)c3ccc(Cl)c-2c31 (single isomer, unassigned; enantiomer 2) [Example 56, (+)-3-Chloro-4-ethyl-17-{3-[(6-fluoronaphthalen-1-yl)oxy]propyl}-5-methyl-5,7,9,14-tetrahydro-indolo[7,1-fg]pyrazolo[3,4-d][2,8]benzoxazacycloundecine-16-carboxylic Acid N-ethylethanamine Salt (Enantiomer 2)]
IC50 (MCL1 protein; PIxEL [M] (median)): 2.35e-06 M
IC50 (HMC-1-8; [2]): 10900 nM
